27 molecules from US7803816B2, “MCH receptor antagonists” (Hoffmann-La Roche Inc., priority 2005, dated 2010) can be followed below.

Structures can show the parent of a compound that is named as a salt. Bounds are passed on as bounds.

T1 sequence (Q99705 whole entry): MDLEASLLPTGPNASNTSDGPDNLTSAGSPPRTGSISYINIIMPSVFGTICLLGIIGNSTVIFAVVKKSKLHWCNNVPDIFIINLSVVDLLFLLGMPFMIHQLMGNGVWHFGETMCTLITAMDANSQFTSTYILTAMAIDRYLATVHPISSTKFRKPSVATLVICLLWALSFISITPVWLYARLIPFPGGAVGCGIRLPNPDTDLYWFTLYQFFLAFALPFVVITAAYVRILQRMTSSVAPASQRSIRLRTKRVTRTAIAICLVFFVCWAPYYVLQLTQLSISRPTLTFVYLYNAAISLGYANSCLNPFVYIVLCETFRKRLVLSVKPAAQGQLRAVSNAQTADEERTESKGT

One assay has as its target T1, recombinant human MCHR1-receptors (Homo sapiens, UniProt Q99705).
T1 construct: expressed in transfected cells
Briefly: MCHR filter binding assay (competition binding). The conditions noted are these: membranes from CHO-K1 cells expressing human MCHR1; 0.2 nM [Phe13,[125I]Tyr19]-MCH; read-out: IC50 (nM), in vitro activity (binding assay). On the procedure:
MCHR Filter Binding Assay
Competition binding assays were performed using membranes from CHO-K1 cells stably expressing the recombinant human MCHR1-receptors. Binding reactions (90 μl, final volume) were carried out at rt by incubating 2.8 μg membranes with 0.2 nM [Phe^13,[^125I]Tyr^19]-MCH (PerkinElmer) in the absence or presence of various concentrations of competing ligands in binding buffer (50 mM HEPES, 2.5 mM CaCl2, 0.05 mM BSA, 1 mM phenanthroline, 0.03 mM Triton X-100). [Phe^13,[^125I]Tyr^19]-MCH was added 15 min following the addition of unlabeled competing ligands, and the reactions incubated for a 1 h period. The reactions were terminated by rapid filtration over pretreated 96-well filter plates (Millipore; MultiScreen 0.65 μm GFB filter plates). Filter Plates were treated for 12 h at 4° C. with a 0.5% polyvinylpyrrolidone solution containing 1% BSA and 0.1% Tween 20, and then washed with an ice-cold solution of 10 mM Tris, pH 7.5 (5×200 μl). The plates were drained following a 5 min incubation with binding buffer (200 μl) at rt. Following termination of the binding reactions, the filters were washed with ice-cold binding buffer (4×200 μl). The filter plates were air dried for 30 min, scintillation cocktail (60 μl) added to each well and radioactivity bound to the plates was determined using a Micro-beta plate reader (Wallace/PerkinElmer).
As to `CO[C@@H]1CN(C[C@@H]2Cc3ccc(Br)cc3C2)CC[C@H]1n1c(C(C)(C)O)nc2cc(C)ccc21` [Example 115, 2-{1-[(3R,4R)-1-((R)-5-Bromo-indan-2-ylmethyl)-3-methoxy-piperidin-4-yl]-5-methyl-1H-benzoimidazol-2-yl}-propan-2-ol], the IC50 – broadly, the concentration needed to halve the response being measured – is 20 to 200 nM. Still for that read-out and setting: with `CO[C@@H]1CN(CC2Cc3ccc(C)cc3C2)CC[C@H]1n1c(C(C)(C)O)nc2cc(F)ccc21` (stereo partly drawn) [Example 110, 2-{5-Fluoro-1-[(3R,4R)-3-methoxy-1-(5-methyl-indan-2-ylmethyl)-piperidin-4-yl]-1H-benzoimidazol-2-yl}-propan-2-ol] the figure was 20 to 200 nM; with `CC(=O)c1nc2cc(C)ccc2n1C1CCN(CC2Cc3ccccc3C2)CC1` [Example 82, 1-[1-(1-Indan-2-ylmethyl-piperidin-4-yl)-5-methyl-1H-benzoimidazol-2-yl]-ethanone], 200 to 5000 nM.

In the case of `CO[C@H]1CN(C[C@@H]2Cc3ccc(NC(=O)C4CC4)cc3C2)CCC1n1c(C2CC2)nc2cc(C)ccc21` (stereo in doubt) [Example 66, Cyclopropanecarboxylic acid {(R)-2-[(3S,4S)-4-(2-cyclopropyl-5-methyl-benzoimidazol-1-yl)-3-methoxy-piperidin-1-ylmethyl]-indan-5-yl}-amide], the IC50 is below 20 nM. Same read-out and setting: with `CO[C@@H]1CN(CC2Cc3ccncc3C2)CC[C@H]1n1c(C)nc2cc(C)ccc21` (stereo partly drawn) [Example 119, 1-[(3R,4R)-1-(6,7-Dihydro-5H-[2]pyrindin-6-ylmethyl)-3-methoxy-piperidin-4-yl]-2,5-dimethyl-1H-benzoimidazole] the figure was 20 to 200 nM; with `CO[C@@H]1CN(CC2Cc3ccc(F)cc3C2)CC[C@H]1n1c(C)nc2cc(C)ccc21` (stereo partly drawn) [Example 20, 1-[(3R,4R)-1-(5-Fluoro-indan-2-ylmethyl)-3-methoxy-piperidin-4-yl]-2,5-dimethyl-1H-benzoimidazole], 20 to 200 nM; with `CO[C@@H]1CN(C[C@@H]2Cc3ccc(NC(=O)C4CC4)cc3C2)CC[C@H]1n1c(C)nc2cc(F)ccc21` [Example 28, Cyclopropanecarboxylic acid {(R)-2-[(3R,4R)-4-(5-fluoro-2-methyl-benzoimidazol-1-yl)-3-methoxy-piperidin-1-ylmethyl]-indan-5-yl}-amide; dihydrochloride], 200 to 5000 nM. As for `Cc1cc2nc(C)n(C3CCN(C[C@@H]4Cc5ccc(NC(=O)C(C)C)cc5C4)CC3)c2cn1` [Example 10, N-{(R)-2-[4-(2,6-Dimethyl-imidazo[4,5-c]pyridin-3-yl)-piperidin-1-ylmethyl]-indan-5-yl}-isobutyramide; compound with trifluoro-acetic acid], the IC50 lay within 200 to 5000 nM. On to `CCC(=O)Nc1ccc2c(c1)C[C@H](CN1CC[C@@H](n3c(C(C)C)nc4cc(C)ccc43)[C@H](O)C1)C2` [Example 84, N-{(R)-2-[(3R,4R)-3-Hydroxy-4-(2-isopropyl-5-methyl-benzoimidazol-1-yl)-piperidin-1-ylmethyl]-indan-5-yl}-propionamide], for which the 50% inhibitory concentration (IC50) is below 20 nM.

With `CO[C@H]1CN(C[C@@H]2Cc3ccc(NC(=O)C(C)C)cc3C2)CC[C@@H]1n1c(C2CC2)nc2cc(C)ccc21` [Example 65, N-{(R)-2-[(3S,4S)-4-(2-Cyclopropyl-5-methyl-benzoimidazol-1-yl)-3-methoxy-piperidin-1-ylmethyl]-indan-5-yl}-isobutyramide], the IC50 is below 20 nM. On the same count and under the same terms, as for `CO[C@@H]1CN(CC2Cc3ccc(C(C)C)cc3C2)CC[C@H]1n1c(C(C)C)nc2cc(C)ccc21` (stereo partly drawn) [Example 98, 2-Isopropyl-1-[(3R,4R)-1-(5-isopropyl-indan-2-ylmethyl)-3-methoxy-piperidin-4-yl]-5-methyl-1H-benzoimidazole], the figure is 200 to 5000 nM; as for `CO[C@H]1CN(CC2Cc3cc(Cl)c(Cl)cc3C2)CC[C@@H]1n1c(C(C)C)nc2cc(C)ccc21` [Example 95, 1-[(3S,4S)-1-(5,6-Dichloro-indan-2-ylmethyl)-3-methoxy-piperidin-4-yl]-2-isopropyl-5-methyl-1H-benzoimidazole; dihydrochloride], 200 to 5000 nM; as for “1-((3R,4R)-1-Indan-2-ylmethyl-3-methoxy-piperidin-4-yl)-2,5-dimethyl-1H-benzoimidazole; dihydrochloride [Example 55]”, 200 to 5000 nM. Consider `Cc1ccc2c(c1)nc(C(C)(C)C)n2C1CCN(C[C@@H]2Cc3ccc(NC(=O)C(C)C)cc3C2)CC1` [Example 41, N-{(R)-2-[4-(2-tert-Butyl-5-methyl-benzoimidazol-1-yl)-piperidin-1-ylmethyl]-indan-5-yl}-isobutyramide], for which the IC50 is below 20 nM.

Consider `CCC(=O)Nc1ccc2c(c1)C[C@H](CN1CC[C@@H](n3c(C4CC4)nc4cc(C)ccc43)[C@H](OC)C1)C2` [Example 76, N-{(R)-2-[(3R,4R)-4-(2-Cyclopropyl-5-methyl-benzoimidazol-1-yl)-3-methoxy-piperidin-1-ylmethyl]-indan-5-yl}-propionamide], for which the IC50 lay in the range of 20 to 200 nM.

`Cc1ccc2c(c1)nc(-c1ccccc1)n2C1CCN(C[C@@H]2Cc3ccc(NC(=O)C(C)C)cc3C2)CC1` [Example 33, N-{(R)-2-[4-(5-Methyl-2-phenyl-benzoimidazol-1-yl)-piperidin-1-ylmethyl]-indan-5-yl}-isobutyramide]: the IC50 was below 20 nM.

In the case of `CCC(=O)Nc1ccc2c(c1)C[C@H](CN1CC[C@H](n3c(C4CC4)nc4cc(C)ccc43)[C@@H](OC)C1)C2` [Example 60, N-{(R)-2-[(3S,4S)-4-(2-Cyclopropyl-5-methyl-benzoimidazol-1-yl)-3-methoxy-piperidin-1-ylmethyl]-indan-5-yl}-propionamide], the IC50 is below 20 nM. The same measure, in the same setting: with `CO[C@@H]1CN(C[C@H]2Cc3ccc(Cl)cc3C2)CC[C@H]1n1c(C(C)(C)O)nc2cc(C)ccc21` [Example 112, 2-{1-[(3R,4R)-1-((S)-5-Chloro-indan-2-ylmethyl)-3-methoxy-piperidin-4-yl]-5-methyl-1H-benzoimidazol-2-yl}-propan-2-ol] the figure was 20 to 200 nM; with `CO[C@H]1CN(CC2Cc3ccc(Cl)cc3C2)CC[C@@H]1n1c(C)nc2cc(C)ccc21` (stereo partly drawn) [Example 19, 1-[(3S,4S)-1-(5-Chloro-indan-2-ylmethyl)-3-methoxy-piperidin-4-yl]-2,5-dimethyl-1H-benzoimidazole; dihydrochloride], 20 to 200 nM.

For the molecule `CO[C@@H]1CN(CC2Cc3ccc(C(C)C)cc3C2)CC[C@H]1n1c(C)nc2cc(C)ccc21` (stereo partly drawn) [Example 104, 1-[(3R,4R)-1-(5-Isopropyl-indan-2-ylmethyl)-3-methoxy-piperidin-4-yl]-2,5-dimethyl-1H-benzoimidazole], the IC50 was in the range of 200 to 5000 nM. On to `CO[C@@H]1CN(C[C@H]2Cc3ccc(NC(=O)C(C)C)cc3C2)CC[C@H]1n1c(C)nc2cc(C)ccc21` [Example 43, N-{(S)-2-[(3R,4R)-4-(2,5-Dimethyl-benzoimidazol-1-yl)-3-methoxy-piperidin-1-ylmethyl]-indan-5-yl}-isobutyramide], for which the IC50 was 20 to 200 nM.

Turning to `CCC(=O)Nc1ccc2c(c1)CC(CN1CC[C@@H](n3c(C)nc4cc(C)ccc43)[C@H](O)C1)C2` (stereo in doubt) [Example 5, N-{(S)-2-[(3R,4R)-4-(2,5-Dimethyl-benzoimidazol-1-yl)-3-hydroxy-piperidin-1-ylmethyl]-indan-5-yl}-propionamide], the IC50 lay within 20 to 200 nM. Take `CO[C@H]1CN(CC2Cc3ccccc3C2)CC[C@@H]1n1c(C)nc2cc(C)ccc21` [Example 81, 1-((3S,4S)-1-Indan-2-ylmethyl-3-methoxy-piperidin-4-yl)-2,5-dimethyl-1H-benzoimidazole]: the IC50 was 200 to 5000 nM. Turning to `CO[C@H]1CN(CC2Cc3cc(F)c(F)cc3C2)CC[C@@H]1n1c(C(C)C)nc2cc(C)ccc21` [Example 100, 1-[(3S,4S)-1-(5,6-Difluoro-indan-2-ylmethyl)-3-methoxy-piperidin-4-yl]-2-isopropyl-5-methyl-1H-benzoimidazole], the IC50 fell in the range of 20 to 200 nM.

Take `CO[C@@H]1CN(CC2Cc3ccccc3C2)CC[C@H]1n1c(C)nc2cc(C)ccc21` [Example 50, 1-((3R,4R)-1-Indan-2-ylmethyl-3-methoxy-piperidin-4-yl)-2,5-dimethyl-1H-benzoimidazole]: the concentration for half-maximal inhibition (IC50) lay in the range of 20 to 200 nM. In the case of `COC1CN(C[C@@H]2Cc3ccc(NC(=O)C(C)C)cc3C2)CCC1n1c(C(C)C)nc2cc(C)ccc21` (stereo partly drawn) [Example 68, N-{(R)-2-[4-(2-Isopropyl-5-methyl-benzoimidazol-1-yl)-3-methoxy-piperidin-1-ylmethyl]-indan-5-yl}-isobutyramide], the half-inhibitory concentration (IC50) was below 20 nM.

Take `CO[C@@H]1CN(C[C@@H]2Cc3ccc(F)cc3C2)CC[C@H]1n1c(C(C)(C)O)nc2cc(C)ccc21` [Example 109, 2-{1-[(3R,4R)-1-((R)-5-Fluoro-indan-2-ylmethyl)-3-methoxy-piperidin-4-yl]-5-methyl-1H-benzoimidazol-2-yl}-propan-2-ol]: the IC50 lay within 20 to 200 nM.

Staying with this assay, now noted: membranes from CHO-K1 cells expressing human MCHR1; 0.2 nM [Phe13,[125I]Tyr19]-MCH; read-out: IC50 (nM), selected in vitro MCH-R binding data.
With `CO[C@H]1CN(C[C@@H]2Cc3ccc(NC(=O)C4CC4)cc3C2)CCC1n1c(C2CC2)nc2cc(C)ccc21` (stereo in doubt) [Example 66, Cyclopropanecarboxylic acid {(R)-2-[(3S,4S)-4-(2-cyclopropyl-5-methyl-benzoimidazol-1-yl)-3-methoxy-piperidin-1-ylmethyl]-indan-5-yl}-amide], the concentration for half-maximal inhibition (IC50) was determined as 12 nM.
